Consider six compounds from ChEMBL document CHEMBL1144600, “Efficient synthesis and biological evaluation of omega-oxygenated analogues of vitamin K2: study of modification and structure-activity relationship of vitamin K2 metabolites” (2007).

Each structure is given as a SMILES string. Active and inactive are the calls of the source. The rule behind the calls is not given here.

In this test the test system is HL-60. In words: Apoptosis inducing activity in human HL60 cells at 10 uM after 74 hrs. Format: functional.
In the case of `CC1=C(C/C=C(\C)CC/C=C(\C)CC/C=C(\C)C=O)C(=O)c2ccccc2C1=O`, the result was inactive.

For `CC1=C(C/C=C(\C)CC/C=C(\C)CC/C=C(\C)CC/C=C(\C)C=O)C(=O)c2ccccc2C1=O`, the outcome was inactive.

Regarding `CC1=C(C/C=C(\C)CC/C=C(\C)CC/C=C(\C)CO)C(=O)c2ccccc2C1=O`, the Activity was 75%.

With `CC1=C(C/C=C(\C)CC/C=C(\C)C=O)C(=O)c2ccccc2C1=O`, the outcome was inactive.

Regarding `CC1=C(C/C=C(\C)CC/C=C(\C)CO)C(=O)c2ccccc2C1=O`, the result was inactive.

Turning to `CC1=C(C/C=C(\C)CC/C=C(\C)CC/C=C(\C)CC/C=C(\C)CO)C(=O)c2ccccc2C1=O`, the Activity is reported as 15%.
